The text below walks through data of patent publication US20140155376A1, “PYRROLOPYRAZINE KINASE INHIBITORS” (Hoffmann-La Roche Inc., priority 2010, published 2014).

Molecules are shown by their SMILES.

As a reminder, the IC50 is the concentration that inhibits the measured activity by half.

T1 sequence (P52333 810-1124): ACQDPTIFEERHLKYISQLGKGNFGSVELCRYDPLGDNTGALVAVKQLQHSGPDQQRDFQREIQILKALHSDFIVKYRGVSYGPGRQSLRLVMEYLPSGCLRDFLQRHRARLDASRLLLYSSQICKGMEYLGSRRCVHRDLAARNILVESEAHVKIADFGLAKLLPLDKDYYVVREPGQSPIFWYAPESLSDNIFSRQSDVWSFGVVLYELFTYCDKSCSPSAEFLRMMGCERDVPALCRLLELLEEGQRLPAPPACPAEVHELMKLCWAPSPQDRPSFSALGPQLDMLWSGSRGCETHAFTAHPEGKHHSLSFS

This assay concerns the target T1, JAK3 (recombinant human kinase domain; h-jak3(810-1124)) (Homo sapiens, UniProt P52333).
T1 construct: h-jak3(810- 1124)-sf9-c; made in house; host or cells: Sf9 insect cells
Description: Determination of IC50 of Janus Kinase (JAK) inhibition: JAK3, radioactive end-point assay with 33P-ATP. Type of assay: biochemical. The note with it: JAK3 kinase domain; ATP 1.5 uM, peptide 50 uM, 20 minutes, room temperature, 10% DMSO; read-out: Ic50 h-jak3(810-1124)-sf9-c:no additive.
On to `C[C@H](NC(=O)c1c[nH]c2ncc(Oc3ccc(F)cc3F)nc12)C(C)(C)O` [Example I-125, 2-(2,4-Difluoro-phenoxy)-5H-pyrrolo[2,3-b]pyrazine-7-carboxylic acid ((S)-2-hydroxy-1,2-dimethyl-propyl)-amide], for which the concentration for half-maximal inhibition (IC50) is 502 nM.
In the case of `CC(C)NC(=O)c1c[nH]c2ncc(Oc3cccc4ccccc34)nc12` [Example I-241, 2-(Naphthalen-1-yloxy)-5H-pyrrolo[2,3-b]pyrazine-7-carboxylic acid isopropylamide], the IC50 turned out to be 677 nM.
To `CC(C)(CCO)NC(=O)c1c[nH]c2ncc(C3CC3)nc12` [Example I-42, 2-Cyclopropyl-5H-pyrrolo[2,3-b]pyrazine-7-carboxylic acid (3-hydroxy-1,1-dimethyl-propyl)-amide] belongs 131 nM.
Take `C[C@H](NC(=O)c1c[nH]c2ncc(-c3ccc(C(=O)N4CC(C(N)=O)C4)s3)nc12)C(C)(C)C` [Example I-179, 2-[5-(3-Carbamoyl-azetidine-1-carbonyl)-thiophen-2-yl]-5H-pyrrolo[2,3-b]pyrazine-7-carboxylic acid ((S)-1,2,2-trimethyl-propyl)-amide]: the IC50 was determined as 0.32 nM.
For `C[C@H](NC(=O)c1c[nH]c2ncc(-c3ccc(C(=O)NCC(C)(C)C)s3)nc12)C(C)(C)C` [Example I-210, 2-[5-(2,2-Dimethyl-propylcarbamoyl)-thiophen-2-yl]-5H-pyrrolo[2,3-b]pyrazine-7-carboxylic acid ((S)-1,2,2-trimethyl-propyl)-amide], the half-maximal inhibitory concentration (IC50) was found to be 0.71 nM.
The result for `O=C(NCC1CCCCC1)c1c[nH]c2ncc(C3CC3)nc12` [Example I-107, 2-Cyclopropyl-5H-pyrrolo[2,3-b]pyrazine-7-carboxylic acid cyclohexylmethyl-amide] reads 61.3 nM.
The result for `CCNC(=O)c1c[nH]c2ncc(Oc3cccc(C#N)c3)nc12` [Example I-245, 2-(3-Cyano-phenoxy)-5H-pyrrolo[2,3-b]pyrazine-7-carboxylic acid ethylamide] reads 3310 nM; that for `C[C@H](NC(=O)c1c[nH]c2ncc(-c3ccc(C(=O)Nc4ccccc4)s3)nc12)C(C)(C)C` [Example I-201, 2-(5-Phenylcarbamoyl-thiophen-2-yl)-5H-pyrrolo[2,3-b]pyrazine-7-carboxylic acid ((S)-1,2,2-trimethyl-propyl)-amide], 0.57 nM.
For `COc1cccc(CNC(=O)c2ccc(-c3cnc4[nH]cc(C(=O)N[C@@H](C)C(C)(C)C)c4n3)s2)c1` [Example I-206, 2-[5-(3-Methoxy-benzylcarbamoyl)-thiophen-2-yl]-5H-pyrrolo[2,3-b]pyrazine-7-carboxylic acid ((S)-1,2,2-trimethyl-propyl)-amide], the concentration for half-maximal inhibition (IC50) turned out to be 0.32 nM.
The result for `C[C@@H](NC(=O)c1c[nH]c2ncc(-c3cnn(C)c3)nc12)C(C)(C)O` [Example I-102, 2-(1-Methyl-1H-pyrazol-4-yl)-5H-pyrrolo[2,3-b]pyrazine-7-carboxylic acid ((R)-2-hydroxy-1,2-dimethyl-propyl)-amide] reads 10.3 nM.
The result for `C[C@H](NC(=O)c1c[nH]c2ncc(-c3ccc(C(=O)NCC4CCCC4)s3)nc12)C(C)(C)C` [Example I-168, 2-[5-(Cyclo-pentylmethyl-carbamoyl)-thiophen-2-yl]-5H-pyrrolo[2,3-b]pyrazine-7-carboxylic acid ((S)-1,2,2-trimethyl-propyl)-amide] reads 0.22 nM.
The result for `C#CCNC(=O)c1ccc(-c2cnc3[nH]cc(C(=O)N[C@@H](C)C(C)(C)C)c3n2)s1` [Example I-198, 2-(5-Prop-2-ynylcarbamoyl-thiophen-2-yl)-5H-pyrrolo[2,3-b]pyrazine-7-carboxylic acid ((S)-1,2,2-trimethyl-propyl)-amide] reads 0.54 nM; that for `CCNC(=O)c1c[nH]c2ncc(Oc3cccc(C(F)(F)F)c3)nc12` [Example I-251, 2-(3-Trifluoromethyl-phenoxy)-5H-pyrrolo[2,3-b]pyrazine-7-carboxylic acid ethylamide], 4030 nM; that for `C[C@H](NC(=O)c1c[nH]c2ncc(-c3cn(-c4cc(C(F)(F)F)ccc4F)cn3)nc12)C(C)(C)C` [Example I-149, 2-[1-(2-Fluoro-5-trifluoromethyl-phenyl)-1H-imidazol-4-yl]-5H-pyrrolo[2,3-b]pyrazine-7-carboxylic acid ((S)-1,2,2-trimethyl-propyl)-amide], 2.99 nM.
Consider `C[C@H](NC(=O)c1c[nH]c2ncc(-c3cnn(C)c3)nc12)C1CCCCC1` [Example I-140, 2-(1-Methyl-1H-pyrazol-4-yl)-5H-pyrrolo[2,3-b]pyrazine-7-carboxylic acid ((S)-1-cyclohexyl-ethyl)-amide], for which the IC50 amounted to 0.88 nM.
The result for `C[C@H](CO)NC(=O)c1c[nH]c2ncc(C3CC3)nc12` [Example I-41, 2-Cyclopropyl-5H-pyrrolo[2,3-b]pyrazine-7-carboxylic acid ((R)-2-hydroxy-1-methyl-ethyl)-amide] reads 112 nM.
`CNC(=O)CNc1cnc2[nH]cc(C(=O)NCC(C)(C)CO)c2n1` [Example I-16]: the IC50 came out at 459 nM.
The result for `C[C@@H](NC(=O)c1c[nH]c2ncc(C3CC3)nc12)C1CCCCC1` [Example I-60, 2-Cyclopropyl-5H-pyrrolo[2,3-b]pyrazine-7-carboxylic acid ((R)-1-cyclohexyl-ethyl)-amide] reads 15 nM.
Consider `C[C@@H](NC(=O)c1c[nH]c2ncc(C3=CCOCC3)nc12)C(C)(C)O` [Example I-110, 2-(3,6-Dihydro-2H-pyran-4-yl)-5H-pyrrolo[2,3-b]pyrazine-7-carboxylic acid ((R)-2-hydroxy-1,2-dimethyl-propyl)-amide], for which the IC50 amounted to 45.4 nM.
In the case of `CC[C@@H](C)NC(=O)c1c[nH]c2ncc(Oc3ccc(F)cc3F)nc12` [Example I-126, 2-(2,4-Difluoro-phenoxy)-5H-pyrrolo[2,3-b]pyrazine-7-carboxylic acid ((R)-sec-butyl)-amide], the IC50 was 190 nM.
The result for `CC(C)NC(=O)c1c[nH]c2ncc(Oc3ccc4c(c3)[C@H](NC(=O)C3CC3)CC4)nc12` [Example I-284, 2-[(R)-3-(Cyclopropane-carbonyl-amino)-indan-5-yloxy]-5H-pyrrolo[2,3-b]pyrazine-7-carboxylic acid isopropylamide] reads 50 nM; that for `C[C@H](NC(=O)c1c[nH]c2ncc(-c3ccc(C(=O)N4CCC(C)(O)CC4)s3)nc12)C(C)(C)C` [Example I-175, 2-[5-(4-Hydroxy-4-methyl-piperidine-1-carbonyl)-thiophen-2-yl]-5H-pyrrolo[2,3-b]pyrazine-7-carboxylic acid ((S)-1,2,2-trimethyl-propyl)-amide], 0.1 nM.
The result for `C[C@H](NC(=O)c1c[nH]c2ncc(-c3ccc(C(=O)NCc4ccccc4)s3)nc12)C(C)(C)C` [Example I-226, 2-(5-Benzylcarbamoyl-thiophen-2-yl)-5H-pyrrolo[2,3-b]pyrazine-7-carboxylic acid ((S)-1,2,2-trimethyl-propyl)-amide] reads 0.5 nM; that for `CC(C)NC(=O)c1c[nH]c2ncc(Oc3cccc(Cl)c3)nc12` [Example I-243, 2-(3-Chloro-phenoxy)-5H-pyrrolo[2,3-b]pyrazine-7-carboxylic acid isopropylamide], 310 nM.
To `CCC[C@@](C)(O)[C@@H](C)NC(=O)c1c[nH]c2ncc(C3CC3)nc12` [Example I-84, 2-Cyclopropyl-5H-pyrrolo[2,3-b]pyrazine-7-carboxylic acid ((1R,2R)-2-hydroxy-1,2-dimethyl-pentyl)-amide] belongs 65.1 nM; to `C[C@H](NC(=O)c1c[nH]c2ncc(-c3ccc(C(=O)N(C)Cc4ccc(F)cc4)s3)nc12)C(C)(C)C` [Example I-205, 2-{5-[(4-Fluoro-benzyl)-methyl-carbamoyl]-thiophen-2-yl}-5H-pyrrolo[2,3-b]pyrazine-7-carboxylic acid ((S)-1,2,2-trimethyl-propyl)-amide], 0.76 nM.
On to `CNC(=O)N[C@@H]1CCc2ccc(Oc3cnc4[nH]cc(C(=O)NC(C)C)c4n3)cc21` [Example I-292, 2-[(R)-3-(3-Methyl-ureido)-indan-5-yloxy]-5H-pyrrolo[2,3-b]pyrazine-7-carboxylic acid isopropylamide], for which the IC50 is 91.7 nM.
The result for `CC(C)[C@H](NC(=O)c1c[nH]c2ncc(C3CC3)nc12)C(C)(C)O` [Example I-24, 2-Cyclopropyl-5H-pyrrolo[2,3-b]pyrazine-7-carboxylic acid ((S)-2-hydroxy-1-isopropyl-2-methyl-propyl)-amide] reads 180 nM.
The result for `C[C@H](NC(=O)c1c[nH]c2ncc(-c3ccc(C(=O)N4CC(C#N)C4)s3)nc12)C(C)(C)C` [Example I-178, 2-[5-(3-Cyano-azetidine-1-carbonyl)-thiophen-2-yl]-5H-pyrrolo[2,3-b]pyrazine-7-carboxylic acid ((S)-1,2,2-trimethyl-propyl)-amide] reads 0.32 nM; that for `C=C(C)c1cnc2[nH]cc(C(=O)N[C@@H](C)C(C)(C)O)c2n1` [Example I-3, 2-Isopropenyl-5H-pyrrolo[2,3-b]pyrazine-7-carboxylic acid ((S)-2-hydroxy-1,2-dimethyl-propyl)-amide], 12.2 nM; that for `C[C@H](NC(=O)c1c[nH]c2ncc(-c3ccc(C(=O)NCCS(N)(=O)=O)s3)nc12)C(C)(C)C` [Example I-173, 2-[5-(2-Sulfamoyl-ethylcarbamoyl)-thiophen-2-yl]-5H-pyrrolo[2,3-b]pyrazine-7-carboxylic acid ((S)-1,2,2-trimethyl-propyl)-amide], 0.2 nM.
The result for `CC(Cn1ccnc1)NC(=O)c1ccc(-c2cnc3[nH]cc(C(=O)N[C@@H](C)C(C)(C)C)c3n2)s1` (stereo partly drawn) [Example I-174, 2-[5-(2-Imidazol-1-yl-1-methyl-ethylcarbamoyl)-thiophen-2-yl]-5H-pyrrolo[2,3-b]pyrazine-7-carboxylic acid ((S)-1,2,2-trimethyl-propyl)-amide] reads 0.22 nM.
